Reference: publication PMC12454639, “Direct disassembly of α-syn preformed fibrils into α-syn monomers by an all-D-peptide” (NPJ Parkinson's Disease, 2025)
Square brackets hold non-standard residues; d marks the D form. Peptide text beside a SMILES is read from it.

How the values were obtained:
[1] = tested on: 15N-labeled full-length acetyl-α-syn; test: NMR paramagnetic relaxation enhancement (PRE); type: binding; conditions: spin-labeled SVD-1a (SVD-1a_Cys_MTSL), 1:1 with α-syn, 10 °C
Experimental: The spin-labeled analog of SVD-1a was prepared by covalent attachment of MTSL (S-(1-oxyl-2,2,5,5-tetramethyl-2,5-dihydro-1H-pyrrol-3-yl)methyl methanesulfonothioate, Toronto Research Chemicals, USA) to the C-terminal D-cysteine residue of SVD-1a_Cys. MTSL was dissolved in DMF (N,N-dimethylformamide) with a concentration of 20 mM and diluted in 200 mM HEPES, pH 7.6, to a final concentration of 2 mM. 900 µl of the solution was then added to 1 mg of lyophilized SVD-1a_Cys to create a fivefold molar excess of MTSL compared to SVD-1a_Cys. […]
NMR paramagnetic relaxation enhancement (PRE) data were recorded on 25 µM ^15N-labeled full-length acetyl-α-syn in the presence of 25 µM paramagnetically labeled (but not isotopically enriched) SVD-1a_Cys_MTSL (using a MTSL spin-label covalently attached to the SVD-1a C-terminus), resulting in a 1:1 ratio of α-syn: SVD-1a. Intensities (Ipara) were extracted from 2D ^1H–^15N Best-TROSY NMR spectra recorded at 600 MHz and 10 °C, each with 128 scans per increment, resulting in a total experimental time of 16 h per spectrum. […] The diamagnetic reference spectra and intensities (Idia) were recorded back-to-back and under identical conditions as for the paramagnetic sample. […]

small α-syn PFF = test: 100 kDa MWCO size-based fractionation of small α-syn PFF followed by ELISA; type: biochemical, Human; conditions: 200 nM PFF, 72 h, 37 °C, n = 3
Experimental: Fig. 4 SVD-1a disassembles small α-syn PFF seeds into α-syn monomers. Small α-syn PFF seeds were prepared as described previously. […] A and B Time-dependent DLS measurements with 200 nM small α-syn PFF seeds in the absence (A) and presence (B) of 500 nM SVD-1a. 1 ml sample was continuously measured in a sealed quartz cuvette at 37 °C under quiescent conditions every 60 s for 72 h in a SpectroSize 300 instrument (XtalConcepts, GE). Data are shown as a radius plot where the signal amplitude of each particle size is represented by the data point diameter. C One-phase exponential decay fit of “200 nM PFF + 500 nM SVD-1a” shown in (B). […] PFF and monomer samples that were incubated without SVD-1a served as controls. α-Syn was detected with the antibody Syn211. […] In the upper part of the blot, above the marker range, PFFs were detected, using a longer exposure time due to a weaker signal (see Supplementary Fig. 11 for the whole blot image with different exposure times). F Size-based fractionation by centrifugal concentration followed by ELISA quantification. […] After incubation, the samples were fractioned using a 100 kDa MWCO centrifugal concentrator (Merck, Microcon DNA Fast Flow 100 MWCO). α-Syn content of flow through (red) and retentate (blue) was quantified using an α-syn specific ELISA (BioLegend, Human α-Synuclein (Colorimetric), 448607). […]

## CC[C@@H](C)[C@@H](NC(=O)[C@@H](Cc1c[nH]cn1)NC(=O)[C@@H](CCC(=O)O)NC(=O)[C@@H](CCC(N)=O)NC(=O)[C@@H](Cc1c[nH]c2ccccc12)NC(=O)[C@@H](Cc1ccc(O)cc1)NC(=O)[C@H](NC(=O)[C@@H](CCC(=O)O)NC(=O)[C@@H](Cc1c[nH]cn1)NC(=O)[C@H](NC(=O)[C@H]1CCCN1C(=O)[C@@H](CC(C)C)NC(=O)[C@H](N)CCCNC(=N)N)[C@H](C)O)[C@H](C)O)C(=O)N[C@H](Cc1c[nH]c2ccccc12)C(=O)N[C@H](Cc1c[nH]cn1)C(=O)N[C@H](C)C(=O)N[C@H](CCCNC(=N)N)C(=O)N[C@H](CCCNC(=N)N)C(=O)N[C@H](CCCNC(=N)N)C(=O)N[C@H](CCCNC(=N)N)C(=O)N[C@H](CCCNC(=N)N)C(N)=O [SVD-1a] (H-[dR][dL][dP][dT][dH][dE][dT][dY][dW][dQ][dE][dH][dI][dW][dH][dA][dR][dR][dR][dR][dR]-NH2)
[1]
  site of interaction with α-syn (PRE): interacts with the entire α-syn monomer, with the C-terminal part showing the strongest interaction
Small α-syn PFF; increasing SVD-1a, 100 kDa MWCO, ELISA
  α-syn fraction in retentate / eluate: concentration-dependent decrease of the α-syn fraction in the retentate—corresponding to small α-syn PFF—and an increase in the eluate
Small α-syn PFF; 1000 nM SVD-1a
  α-syn distribution vs monomer control: shows the same distribution as the monomer control
